ChEMBL document CHEMBL3243950, “New inhibitors of steroid 11beta-hydroxylase. Structure--activity relationship studies of metyrapone-like compounds” (J Med Chem, 1977)

Assays:
[1] = molecular target: T1, Cytochrome P450 11B1, mitochondrial (Bos taurus, UniProt P15150); assay: Inhibition of bovine adrenal gland 11beta-hydroxylase assessed as inhibition of [14C]-deoxycorticosterone hydroxylation at 2 uM; conditions: cattle
T1 sequence (P15150 whole entry): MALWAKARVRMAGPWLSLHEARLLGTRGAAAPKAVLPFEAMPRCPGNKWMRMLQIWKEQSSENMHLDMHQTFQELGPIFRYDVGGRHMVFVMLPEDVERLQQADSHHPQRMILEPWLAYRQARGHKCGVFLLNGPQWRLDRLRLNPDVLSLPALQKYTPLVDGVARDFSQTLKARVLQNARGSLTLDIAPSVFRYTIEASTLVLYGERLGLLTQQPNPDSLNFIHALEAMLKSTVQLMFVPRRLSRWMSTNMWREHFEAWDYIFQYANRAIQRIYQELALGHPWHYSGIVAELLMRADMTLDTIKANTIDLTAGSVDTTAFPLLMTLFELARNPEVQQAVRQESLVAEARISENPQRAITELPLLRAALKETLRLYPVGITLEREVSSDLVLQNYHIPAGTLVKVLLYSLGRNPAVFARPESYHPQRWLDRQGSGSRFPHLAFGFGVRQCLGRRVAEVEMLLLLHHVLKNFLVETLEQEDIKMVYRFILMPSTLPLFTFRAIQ

[2] = molecular target: T1, Cytochrome P450 11B1, mitochondrial; assay: Inhibition of bovine adrenal gland 11beta-hydroxylase assessed as inhibition of [14C]-deoxycorticosterone hydroxylation at 2 uM relative to metyrapone; conditions: cattle
[3] = molecular target: T1, Cytochrome P450 11B1, mitochondrial; assay: Inhibition of bovine adrenal gland 11beta-hydroxylase assessed as amount of corticosterone production using 22 nmol [14C]-deoxycorticosterone measured per 5 mins at 2 nmol (reference value: 1.3 +/- 0.04 nmol); conditions: cattle
[4] = molecular target: T1, Cytochrome P450 11B1, mitochondrial; assay: Inhibition of bovine adrenal gland 11beta-hydroxylase assessed as amount of corticosterone production using 11 nmol [14C]-deoxycorticosterone measured per 5 mins at 2 nmol (reference value: 1.3 +/- 0.04 nmol); conditions: cattle
[5] = molecular target: T1, Cytochrome P450 11B1, mitochondrial; assay: Inhibition of bovine adrenal gland 11beta-hydroxylase assessed as inhibition of [14C]-deoxycorticosterone hydroxylation
[6] = molecular target: T1, Cytochrome P450 11B1, mitochondrial; assay: Inhibition of bovine adrenal gland 11beta-hydroxylase assessed as amount of corticosterone production using 22 nmol [14C]-deoxycorticosterone measured per 5 mins at 2 nmol; conditions: cattle
[7] = molecular target: T1, Cytochrome P450 11B1, mitochondrial; assay: Inhibition of bovine adrenal gland 11beta-hydroxylase assessed as amount of corticosterone production using 11 nmol [14C]-deoxycorticosterone measured per 5 mins at 2 nmol; conditions: cattle

inhibition at 2 µM [1] [%]	Ratio [2]	Structure (SMILES)	also measured
35	0.52	O=C(c1cccnc1)C(c1ccccc1)c1cccnc1 (stereo not drawn)	
22	0.32	O=C(c1ccccc1)C(c1ccccc1)c1cccnc1 (stereo not drawn)	
15	0.22	O=C(c1cccnc1)C(c1ccccc1)c1ccccc1	
9	0.13	O=C(Cc1ccccc1)c1cccnc1	
13	0.19	CC(C(=O)c1cccnc1)c1ccccc1 (stereo not drawn)	
44	0.65	OC(c1ccccc1)C(c1ccccc1)c1cccnc1 (stereo not drawn)	
17	0.25	OC(c1cccnc1)C(c1ccccc1)c1ccccc1 (stereo not drawn)	
44	0.65	CC(C(=O)c1ccccc1)c1cccnc1 (stereo not drawn)	
15	0.22	O=C(Cc1cccnc1)c1ccccc1	
9	0.13	OC(c1cccnc1)C(c1ccccc1)c1cccnc1 (racemic)	
7	0.1	OC(Cc1cccnc1)c1cccnc1 (racemic)	
28	0.41	C[C@@H](c1cccnc1)[C@@H](O)c1cccnc1 (relative stereo)	
44	0.65	CC(C)(c1cccnc1)C(O)c1cccnc1 (stereo not drawn) [METYRAPOL]	
68	1	CC(C)(C(=O)c1cccnc1)c1cccnc1 [METYRAPONE]	Activity [3]: 0.74 nmol; Activity [4]: 0.39 nmol; Ki [5]: 580 nM; inhibition (INH) [6]: 68%; inhibition (INH) [7]: 70%
